Experimental data reported in US6506607B1, “Methods and compositions for the identification and assessment of prostate cancer therapies and the diagnosis of prostate cancer” (Millennium Pharmaceuticals, Inc., priority 1997, dated 2003).

Tested on: LNCaP cells
Assay: Gene expression in bicalutamide-treated vs untreated LNCaP cells (subtraction library, Gene Expression Micro-Array)
Type: cell-based
Conditions: 25 hours

CC(O)(CS(=O)(=O)c1ccc(F)cc1)C(=O)Nc1ccc(C#N)c(C(F)(F)F)c1 (stereo not shown) [bicalutamide, Bicalutamide]
FOLD INCREASE IN mRNA: Cyclin-dependent kinase inhibitor 1 {268652} (SEQ ID NO 41, 100 nM bicalutamide): 4.5 fold
FOLD INCREASE IN mRNA: Activating transcription factor 3 (ATF3) {428248} (SEQ ID NO 42, 100 nM bicalutamide): 11.5 fold
FOLD INCREASE IN mRNA: Defender against cell death 1 {488974} (SEQ ID NO 43, 100 nM bicalutamide): 2.9 fold
FOLD INCREASE IN mRNA: CLCN3 {346749} (SEQ ID NO 46, 100 nM bicalutamide): 2.4 fold
FOLD INCREASE IN mRNA: Phosphotyrosine independent ligand p62 for the Lck SH2 domain {510278} (SEQ ID NO 47, 100 nM bicalutamide): 5.8 fold
FOLD INCREASE IN mRNA: Seryl-tRNA synthetase {510431} (SEQ ID NO 48, 100 nM bicalutamide): 4.3 fold
FOLD INCREASE IN mRNA: D53 (hD53) {510461} (SEQ ID NO 49, 100 nM bicalutamide): 3.8 fold
FOLD INCREASE IN mRNA: Unknown human protein {512334} (SEQ ID NO 50, 100 nM bicalutamide): 3.5 fold
FOLD INCREASE IN mRNA: Thioredoxin reductase {510377} (SEQ ID NO 51, 100 nM bicalutamide): 2.6 fold
FOLD INCREASE IN mRNA: ORF and HepG2 (identical sequence) {510258} (SEQ ID NO 53, 100 nM bicalutamide): 5.3 fold
FOLD INCREASE IN mRNA: 4F2 cell-surface antigen heavy chain {510504} (SEQ ID NO 54, 100 nM bicalutamide): 8.1 fold
FOLD INCREASE IN mRNA: Asparagine synthetase {510206} (SEQ ID NO 55, 100 nM bicalutamide): 2.8 fold
FOLD INCREASE IN mRNA: pM5 {509550} (SEQ ID NO 56, 100 nM bicalutamide): 2.3 fold
FOLD INCREASE IN mRNA: Archain {488510} (SEQ ID NO 57, 100 nM bicalutamide): 2.3 fold
FOLD INCREASE IN mRNA: Gravin {488106} (SEQ ID NO 58, 100 nM bicalutamide): 2.8 fold
FOLD INCREASE IN mRNA: Signal recognition particle receptor alpha subunit {358710} (SEQ ID NO 60, 100 nM bicalutamide): 2.6 fold
FOLD INCREASE IN mRNA: Phosphoenolpyruvate carboxykinase {363272} (SEQ ID NO 61, 100 nM bicalutamide): 3.4 fold
FOLD INCREASE IN mRNA: Protein translation factor SUI1 homolog {365542} (SEQ ID NO 62, 100 nM bicalutamide): 2.7 fold
FOLD INCREASE IN mRNA: NADPH-flavin reductase {365775} (SEQ ID NO 63, 100 nM bicalutamide): 3.7 fold
FOLD INCREASE IN mRNA: Peptidyl-prolyl CIS-trans isomerase B precursor {376399} (SEQ ID NO 64, 100 nM bicalutamide): 2.5 fold
FOLD INCREASE IN mRNA: Aspartate aminotransferase {417270} (SEQ ID NO 65, 100 nM bicalutamide): 3.1 fold
FOLD INCREASE IN mRNA: OS-9 precursor {417136} (SEQ ID NO 66, 100 nM bicalutamide): 2.7 fold
FOLD INCREASE IN mRNA: KIAA0025 and PIGHEP3 homologous region {418227} (SEQ ID NO 67, 100 nM bicalutamide): 5.3 fold
FOLD INCREASE IN mRNA: Glucosamine-fructose-6-phosphate aminotransferase {469633} (SEQ ID NO 68, 100 nM bicalutamide): 3.2 fold
FOLD INCREASE IN mRNA: ADP-ribosylation factor 1 {471384} (SEQ ID NO 69, 100 nM bicalutamide): 3.1 fold
FOLD INCREASE IN mRNA: Glycyl-tRNA synthetase {471164} (SEQ ID NO 70, 100 nM bicalutamide): 3.6 fold
FOLD INCREASE IN mRNA: Prion protein (PrP) {470074} (SEQ ID NO 71, 100 nM bicalutamide): 3.1 fold
FOLD INCREASE IN mRNA: Mitochondrial serine hydroxymethyltransferase {344080} (SEQ ID NO 72, 100 nM bicalutamide): 2.4 fold
FOLD INCREASE IN mRNA: Alanyl-TRNA synthetase {343998} (SEQ ID NO 73, 100 nM bicalutamide): 3.8 fold
FOLD INCREASE IN mRNA: Translocon-associated protein {324179} (SEQ ID NO 76, 100 nM bicalutamide): 2.5 fold
FOLD INCREASE IN mRNA: Translation initiation factor 5 (elF5) {299843} (SEQ ID NO 78, 100 nM bicalutamide): 2.3 fold
FOLD INCREASE IN mRNA: RESTIN {291620} (SEQ ID NO 79, 100 nM bicalutamide): 2.3 fold
FOLD INCREASE IN mRNA: Transcription elongation factor S-II {257458} (SEQ ID NO 80, 100 nM bicalutamide): 2.8 fold
FOLD INCREASE IN mRNA: Human clone 137308 {252491} (SEQ ID NO 81, 100 nM bicalutamide): 2.6 fold
FOLD INCREASE IN mRNA: Glutamate-cysteine ligase regulatory subunit {245939} (SEQ ID NO 82, 100 nM bicalutamide): 4.1 fold
FOLD INCREASE IN mRNA: Fatty aldehyde dehydrogenase {208950} (SEQ ID NO 83, 100 nM bicalutamide): 3.1 fold
FOLD INCREASE IN mRNA: MHC class I HLA-Bw58 gene {203448} (SEQ ID NO 84, 100 nM bicalutamide): 2.3 fold
FOLD INCREASE IN mRNA: Mitochondrial NDA (P)+ dependent malic enzyme {109375} (SEQ ID NO 85, 100 nM bicalutamide): 2.5 fold
FOLD INCREASE IN mRNA: GADD 153 = Growth arrest and DNA-damage inductor gene {362009} (SEQ ID NO 136, 100 nM bicalutamide): 11.1 fold
FOLD INCREASE IN mRNA: KIAA0025 gene {30476} (SEQ ID NO 137, 100 nM bicalutamide): 6.7 fold
FOLD INCREASE IN mRNA: Phosphotyrosine independent ligand p62 for the Lck SH2 domain {471392} (SEQ ID NO 138, 100 nM bicalutamide): 6.4 fold
FOLD INCREASE IN mRNA: 150 kDa oxygen-regulated protein ORP150 {486858} (SEQ ID NO 139, 100 nM bicalutamide): 5.9 fold
FOLD INCREASE IN mRNA: 78 KD Glucose regulated protein precursor {366350} (SEQ ID NO 140, 100 nM bicalutamide): 4 fold
FOLD INCREASE IN mRNA: Smad 1 {345928} (SEQ ID NO 141, 100 nM bicalutamide): 3.9 fold
FOLD INCREASE IN mRNA: EST28g11 WATM1 {486703} (SEQ ID NO 142, 100 nM bicalutamide): 3.8 fold
FOLD INCREASE IN mRNA: ESTs {322080} (SEQ ID NO 143, 100 nM bicalutamide): 3.7 fold
FOLD INCREASE IN mRNA: Seryl-tRNA sythetase {129892} (SEQ ID NO 144, 100 nM bicalutamide): 3.6 fold
FOLD INCREASE IN mRNA: HU-K4 {470677} (SEQ ID NO 145, 100 nM bicalutamide): 3.6 fold
FOLD INCREASE IN mRNA: ESTs {126530} (SEQ ID NO 146, 100 nM bicalutamide): 3.5 fold
FOLD INCREASE IN mRNA: ESTs {429327} (SEQ ID NO 147, 100 nM bicalutamide): 3.5 fold
FOLD INCREASE IN mRNA: Vascular endothelial growth factor (VEGF (165)) {488697} (SEQ ID NO 148, 100 nM bicalutamide): 3.2 fold
FOLD INCREASE IN mRNA: ESTs {50914} (SEQ ID NO 149, 100 nM bicalutamide): 3.1 fold
FOLD INCREASE IN mRNA: ESTs {279847} (SEQ ID NO 150, 100 nM bicalutamide): 3.1 fold
FOLD INCREASE IN mRNA: ESTs {361548} (SEQ ID NO 151, 100 nM bicalutamide): 3.1 fold
FOLD INCREASE IN mRNA: ESTs {364730} (SEQ ID NO 152, 100 nM bicalutamide): 3.1 fold
FOLD INCREASE IN mRNA: ESTs {470212} (SEQ ID NO 153, 100 nM bicalutamide): 3.1 fold
FOLD INCREASE IN mRNA: ESTs {471210} (SEQ ID NO 154, 100 nM bicalutamide): 3.1 fold
FOLD INCREASE IN mRNA: ESTs {289300} (SEQ ID NO 155, 100 nM bicalutamide): 3 fold
FOLD INCREASE IN mRNA: ESTs {427725} (SEQ ID NO 156, 100 nM bicalutamide): 3 fold
FOLD INCREASE IN mRNA: ESTs {428217} (SEQ ID NO 157, 100 nM bicalutamide): 2.9 fold
FOLD INCREASE IN mRNA: rfp transforming protein {485268} (SEQ ID NO 158, 100 nM bicalutamide): 2.8 fold
FOLD INCREASE IN mRNA: ESTs {487420} (SEQ ID NO 159, 100 nM bicalutamide): 2.8 fold
FOLD INCREASE IN mRNA: 60S RIBOSOMAL PROTEIN L18A {509699} (SEQ ID NO 160, 100 nM bicalutamide): 2.8 fold
FOLD INCREASE IN mRNA: ESTs {31943} (SEQ ID NO 161, 100 nM bicalutamide): 2.7 fold
FOLD INCREASE IN mRNA: ESTs {376271} (SEQ ID NO 162, 100 nM bicalutamide): 2.7 fold
FOLD INCREASE IN mRNA: ESTs {469642} (SEQ ID NO 163, 100 nM bicalutamide): 2.7 fold
FOLD INCREASE IN mRNA: ESTs {471826} (SEQ ID NO 164, 100 nM bicalutamide): 2.7 fold
FOLD INCREASE IN mRNA: KIAA0262 {485008} (SEQ ID NO 165, 100 nM bicalutamide): 2.7 fold
FOLD INCREASE IN mRNA: ESTs {292082} (SEQ ID NO 166, 100 nM bicalutamide): 2.6 fold
FOLD INCREASE IN mRNA: ESTs {365557} (SEQ ID NO 167, 100 nM bicalutamide): 2.6 fold
FOLD INCREASE IN mRNA: Immunogloblin light chain (lambda) {119218} (SEQ ID NO 168, 100 nM bicalutamide): 2.5 fold
FOLD INCREASE IN mRNA: ELP-1 {147979} (SEQ ID NO 169, 100 nM bicalutamide): 2.5 fold
FOLD INCREASE IN mRNA: TRAMP protein {149355} (SEQ ID NO 170, 100 nM bicalutamide): 2.5 fold
FOLD INCREASE IN mRNA: ESTs {294078} (SEQ ID NO 171, 100 nM bicalutamide): 2.5 fold
FOLD INCREASE IN mRNA: ESTs {291005} (SEQ ID NO 172, 100 nM bicalutamide): 2.5 fold
FOLD INCREASE IN mRNA: ESTs {365907} (SEQ ID NO 173, 100 nM bicalutamide): 2.5 fold
FOLD INCREASE IN mRNA: ESTs {427801} (SEQ ID NO 174, 100 nM bicalutamide): 2.5 fold
FOLD INCREASE IN mRNA: ESTs {469515} (SEQ ID NO 175, 100 nM bicalutamide): 2.5 fold
FOLD INCREASE IN mRNA: Tral mRNA for human homologue of murine tumor rejection antigen gp96 {509486} (SEQ ID NO 176, 100 nM bicalutamide): 2.5 fold
FOLD INCREASE IN mRNA: Biotin-[propionyl-CoA-carboxylase (ATP-hydrolysing)] {176590} (SEQ ID NO 177, 100 nM bicalutamide): 2.4 fold
FOLD INCREASE IN mRNA: Tral mRNA for human homologue of murine tumor rejection antigen gp96 {242829} (SEQ ID NO 178, 100 nM bicalutamide): 2.4 fold
FOLD INCREASE IN mRNA: Cancellous bone osteoblast mRNA for GS3786 {486005} (SEQ ID NO 179, 100 nM bicalutamide): 2.4 fold
FOLD INCREASE IN mRNA: ESTs {509583} (SEQ ID NO 180, 100 nM bicalutamide): 2.4 fold
FOLD INCREASE IN mRNA: ESTs {44551} (SEQ ID NO 181, 100 nM bicalutamide): 2.3 fold
FOLD INCREASE IN mRNA: ESTs {245853} (SEQ ID NO 182, 100 nM bicalutamide): 2.3 fold
FOLD INCREASE IN mRNA: ESTs {306075} (SEQ ID NO 183, 100 nM bicalutamide): 2.3 fold
FOLD INCREASE IN mRNA: ESTs {322143} (SEQ ID NO 184, 100 nM bicalutamide): 2.3 fold
FOLD INCREASE IN mRNA: ESTs {322749} (SEQ ID NO 185, 100 nM bicalutamide): 2.3 fold
FOLD INCREASE IN mRNA: ESTs {359877} (SEQ ID NO 186, 100 nM bicalutamide): 2.3 fold
FOLD INCREASE IN mRNA: ESTs {360446} (SEQ ID NO 187, 100 nM bicalutamide): 2.3 fold
FOLD INCREASE IN mRNA: ESTs {360789} (SEQ ID NO 188, 100 nM bicalutamide): 2.3 fold
FOLD INCREASE IN mRNA: Protein tyrosine kinase t-Rorl {418257} (SEQ ID NO 189, 100 nM bicalutamide): 2.3 fold
FOLD INCREASE IN mRNA: ESTs {486712} (SEQ ID NO 190, 100 nM bicalutamide): 2.3 fold
FOLD INCREASE IN mRNA: ESTs {489106} (SEQ ID NO 191, 100 nM bicalutamide): 2.3 fold
